Data: ChEMBL document CHEMBL1221226 (Nat Chem Biol, 2009)
Positions of bridges follow the written chain, without caps; N, C: chain ends. Residues, ends and D or L forms follow the SMILES beside them. *: point of attachment. X1 = CC(CN[C@@H](Cc1cnc[nH]1)C(=O)O)C(=O)*

Columns and labels:
Glucagon receptor = Glucagon receptor (Homo sapiens, UniProt P47871); test: Agonist activity at GCGR expressed in HEK293 cells assessed as stimulation of cAMP production by luciferase reporter gene assay; format: functional, cell-based
[1] = biological target: Glucagon-like peptide 1 receptor (Homo sapiens, UniProt P43220); test: Agonist activity at GLP1R expressed in HEK293 cells assessed as stimulation of cAMP production by luciferase reporter gene assay; format: functional, cell-based
Sequence of Glucagon-like peptide 1 receptor (P43220 whole entry): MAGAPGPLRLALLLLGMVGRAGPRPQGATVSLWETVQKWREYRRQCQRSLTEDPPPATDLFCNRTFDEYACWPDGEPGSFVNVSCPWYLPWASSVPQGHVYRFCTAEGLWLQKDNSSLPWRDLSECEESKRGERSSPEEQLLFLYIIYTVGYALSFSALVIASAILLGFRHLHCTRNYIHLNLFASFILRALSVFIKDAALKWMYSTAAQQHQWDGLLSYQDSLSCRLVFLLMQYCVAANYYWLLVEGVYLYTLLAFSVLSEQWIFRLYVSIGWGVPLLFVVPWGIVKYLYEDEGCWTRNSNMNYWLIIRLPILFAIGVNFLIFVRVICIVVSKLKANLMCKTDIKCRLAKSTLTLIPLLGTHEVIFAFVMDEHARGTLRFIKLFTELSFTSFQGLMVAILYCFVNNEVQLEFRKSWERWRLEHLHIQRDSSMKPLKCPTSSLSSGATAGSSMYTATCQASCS

Sequence of Glucagon receptor (P47871 whole entry): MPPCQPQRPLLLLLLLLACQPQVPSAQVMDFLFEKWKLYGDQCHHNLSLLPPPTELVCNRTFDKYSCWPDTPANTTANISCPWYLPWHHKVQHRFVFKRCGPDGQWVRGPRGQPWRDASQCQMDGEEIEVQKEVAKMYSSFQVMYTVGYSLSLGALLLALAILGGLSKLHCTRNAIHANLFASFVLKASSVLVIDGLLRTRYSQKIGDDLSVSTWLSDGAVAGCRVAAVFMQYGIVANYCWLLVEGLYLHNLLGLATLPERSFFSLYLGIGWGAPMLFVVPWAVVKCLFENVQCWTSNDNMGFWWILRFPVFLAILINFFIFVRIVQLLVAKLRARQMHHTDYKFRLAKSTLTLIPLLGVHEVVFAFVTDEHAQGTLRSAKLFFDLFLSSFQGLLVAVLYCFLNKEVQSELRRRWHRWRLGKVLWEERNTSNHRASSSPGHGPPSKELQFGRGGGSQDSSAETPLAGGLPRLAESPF

| SMILES | EC50 (Glucagon receptor) [nM] | EC50 [1] [nM] | EC50 (Glucagon receptor; hek293) [nM] | EC50 ([1]; hek293) [nM] |
| --- | --- | --- | --- | --- |
| CC[C@H](C)[C@H](NC(=O)[C@H](Cc1ccccc1)NC(=O)[C@H](CCC(=O)O)NC(=O)[C@@H]1CCCCNC(=O)CC[C@H](NC(=O)[C@H](CC(=O)O)NC(=O)[C@H](CC(C)C)NC(=O)[C@H](Cc2ccc(O)cc2)NC(=O)[C@H](CCCCN)NC(=O)[C@H](CO)NC(=O)[C@H](Cc2ccc(O)cc2)NC(=O)[C@H](CC(=O)O)NC(=O)[C@H](CO)NC(=O)[C@@H](NC(=O)[C@H](Cc2ccccc2)NC(=O)[C@@H](NC(=O)CNC(=O)[C@H](CCC(N)=O)NC(=O)C(C)CN[C@@H](Cc2cnc[nH]2)C(=O)O)[C@@H](C)O)[C@@H](C)O)C(=O)N[C@@H](CCC(N)=O)C(=O)N[C@@H](C)C(=O)N[C@@H](C)C(=O)N1)C(=O)N[C@@H](C)C(=O)N[C@@H](Cc1c[nH]c2ccccc12)C(=O)N[C@@H](CC(C)C)C(=O)N[C@@H](CCSC)C(=O)N[C@@H](CC(N)=O)C(=O)N[C@H](C(=O)O)[C@@H](C)O (some centres not stated) (X1-QGTFTSDYSKYLDEQAAKEFIAWLMNT-OH; lactam 14-18) | 0.055 | 0.013 | – | – |
| CC[C@H](C)[C@H](NC(=O)[C@H](Cc1ccccc1)NC(=O)[C@H](CCC(=O)O)NC(=O)[C@H](CCCCN)NC(=O)[C@H](C)NC(=O)[C@H](C)NC(=O)[C@H](CCC(N)=O)NC(=O)[C@H](CCC(=O)O)NC(=O)[C@H](CC(=O)O)NC(=O)[C@H](CC(C)C)NC(=O)[C@H](Cc1ccc(O)cc1)NC(=O)[C@H](CCCCN)NC(=O)[C@H](CO)NC(=O)[C@H](Cc1ccc(O)cc1)NC(=O)[C@H](CC(=O)O)NC(=O)[C@H](CO)NC(=O)[C@@H](NC(=O)[C@H](Cc1ccccc1)NC(=O)[C@@H](NC(=O)CNC(=O)[C@H](CCC(N)=O)NC(=O)[C@H](CO)NC(=O)[C@@H](N)Cc1cnc[nH]1)[C@@H](C)O)[C@@H](C)O)C(=O)N[C@@H](C)C(=O)N[C@@H](Cc1c[nH]c2ccccc12)C(=O)N[C@@H](CC(C)C)C(=O)N[C@@H](CCSC)C(=O)N[C@@H](CC(N)=O)C(=O)N[C@H](C(=O)O)[C@@H](C)O (H-HSQGTFTSDYSKYLDEQAAKEFIAWLMNT-OH) | – | – | 0.068 | 0.026 |
| CSCC[C@H](NC(=O)[C@H](CC(C)C)NC(=O)[C@H](Cc1c[nH]c2ccccc12)NC(=O)[C@H](CCC(N)=O)NC(=O)[C@@H](NC(=O)[C@H](Cc1ccccc1)NC(=O)[C@H](CC(=O)O)NC(=O)[C@H](CCC(N)=O)NC(=O)[C@H](C)NC(=O)[C@H](CCCN=C(N)N)NC(=O)[C@H](CCCN=C(N)N)NC(=O)[C@H](CCC(N)=O)NC(=O)[C@H](CC(=O)O)NC(=O)[C@H](CC(C)C)NC(=O)[C@H](Cc1ccc(O)cc1)NC(=O)[C@H](CCCCN)NC(=O)[C@H](CO)NC(=O)[C@H](Cc1ccc(O)cc1)NC(=O)[C@H](CC(=O)O)NC(=O)[C@H](CO)NC(=O)[C@@H](NC(=O)[C@H](Cc1ccccc1)NC(=O)[C@@H](NC(=O)CNC(=O)[C@H](CCC(N)=O)NC(=O)[C@H](CO)N[C@@H](Cc1cnc[nH]1)C(=O)O)[C@@H](C)O)[C@@H](C)O)C(C)C)C(=O)N[C@@H](CC(N)=O)C(=O)N[C@H](C(N)=O)[C@@H](C)O | – | 0.26 | – | – |
| CSCC[C@H](NC(=O)[C@H](CC(C)C)NC(=O)[C@H](Cc1c[nH]c2ccccc12)NC(=O)[C@H](CCC(N)=O)NC(=O)[C@@H](NC(=O)[C@H](Cc1ccccc1)NC(=O)[C@H](CC(=O)O)NC(=O)[C@H](CCCCN)NC(=O)[C@H](C)NC(=O)[C@H](C)NC(=O)[C@H](CCCNC(=N)N)NC(=O)[C@H](CCC(=O)O)NC(=O)[C@H](CC(=O)O)NC(=O)[C@H](CC(C)C)NC(=O)[C@H](Cc1ccc(O)cc1)NC(=O)[C@H](CCCCN)NC(=O)[C@H](CO)NC(=O)[C@H](Cc1ccc(O)cc1)NC(=O)[C@H](CC(=O)O)NC(=O)[C@H](CO)NC(=O)[C@@H](NC(=O)[C@H](Cc1ccccc1)NC(=O)[C@@H](NC(=O)CNC(=O)[C@H](CCC(N)=O)NC(=O)[C@H](CO)N[C@@H](Cc1cnc[nH]1)C(=O)O)[C@@H](C)O)[C@@H](C)O)C(C)C)C(=O)N[C@@H](CC(N)=O)C(=O)N[C@H](C(N)=O)[C@@H](C)O | 0.087 | 0.028 | – | – |
